Laboratory results reported in publication PMC6271933, “Evaluation of the Toxicity of 5-Aryl-2-Aminoimidazole-Based Biofilm Inhibitors against Eukaryotic Cell Lines, Bone Cells and the Nematode Caenorhabditis elegans” (Molecules, 2014).
Where “and” joins values, the source holds several entries; their conditions need not be identical. Equal values may be shown once. Entries after “also recorded” stand apart in the source; their conditions may differ.

Experiments:
[1] = system: HMO2, HepG2, HeLa and mouse lymphoma cells; design: method as in PMID 12193030, PMID 15165143, PMID 17822294; settings: including HMO2, HepG2, HeLa and mouse lymphoma cells; cited from earlier work
[2] = system: epidermal growth factor-stimulated DNA synthesis in squamous cell tumors; settings: compared with naamidine A; cited from earlier work
[3] = system: Caenorhabditis elegans; design: method as in PMID 22292413; settings: cited from earlier work
[4] = system: HaCaT keratinocyte cells; design: method as in PMID 22292413; settings: cited from earlier work
[5] = system: human T-lymphocyte (CEM); experiment: Cytostatic activity against tumor cell lines (cell number by Coulter counter); format: cell-based; settings: 72 h, concentration inhibiting cell proliferation by 50%, three days incubation, mean of three repeats
Description: (§1) The IC50 was defined as the compound concentration required to inhibit cell proliferation by 50%. The therapeutic index (TI) was calculated as the ratio of the compound concentration producing toxicity (IC50) to the concentration needed to exert the desired ‘therapeutic’ effect on biofilms of Salmonella and Pseudomonas, indicated by the BIC50 (dose needed to prevent biofilm formation by 50%). The higher the therapeutic index, the broader the safety window of the compound.
(§2) Murine leukemia (L1210), human T-lymphocyte (CEM) and human cervix carcinoma (HeLa) were suspended at 300,000–500,000 cells/mL of culture medium, and 100 µL of a cell suspension was added to 100 µL of an appropriate dilution of the test compounds in 200 µL-wells of 96-well microtiter plates. After incubation at 37 °C for two (L1210), three (CEM) or four (HeLa) days, the cell number was determined using a Coulter counter. The IC50 was defined as the compound concentration required to inhibit cell proliferation by 50%.

[6] = system: human cervix carcinoma (HeLa); experiment: as above; format: cell-based; settings: 96 h, concentration inhibiting cell proliferation by 50%, four days incubation, mean of three repeats
Description: as §1, §2

[7] = system: murine leukemia (L1210); experiment: as above; format: cell-based; settings: Mus musculus, L1210, 48 h; concentration inhibiting cell proliferation by 50%; two days incubation; mean of three repeats
Description: as §1, §2

[8] = system: C. elegans; format: in vivo, Caenorhabditis elegans; settings: for C. elegans % survival at 25 µM: after 7 days relative to viability at day 0, mean of at least two repeats
Description: Eggs of a double mutant (glp-4Dsek-1D) of C. elegans were grown on NGM/OP50 agar plates (NGM agar plates on the surface inoculated with 100 µL of an overnight culture of OP50 Escherichia coli and stored at 4 °C until use) at 25 °C until all nematodes had reached the L4 stage. Worms were collected and washed with M9 buffer (3 g/L KH2PO4, 6 g/L Na2HPO4, 5 g/L NaCl, 1 mM MgSO4). For toxicity testing, 40 to 50 worms were suspended in 250 μL M9 (supplemented with 10 µg/mL cholesterol, 75 µg/mL ampicillin and 100 µg/mL kanamycin) buffer in each well of 24-well microtiter plates, in the presence or absence (0.5% DMSO control) of 25, 100 or 200 µM of the test compounds and grown for 7 days at 25 °C. The percentage survival of the worms in the presence or absence of anti-biofilm compounds was calculated after 7 days relative to their viability at day 0.

[9] = system: human bone marrow-derived mesenchymal stem cells (MSC); experiment: Cytotoxicity against bone cells, trypan blue staining; format: cell-based; settings: for effect on proliferation and viability: after 48h and after 6 days of exposure
Description: (§3) The cytotoxicity of the compounds was measured on cell cultures of two cell types represented in bone tissue, namely human osteoblasts (OB) and human bone marrow-derived mesenchymal stem cells (MSC). These tests were conducted according to ISO 10993-5 cytotoxicity standard. The cells were seeded in a 96-well plate at a density of 5000 cells/cm^2 in cell culture media (Advanced DMEM, 10% FBS, 1× GlutaMAX, 0.05 mg/mL gentamicin) and allowed to attach overnight. […]
(§4) Trypan blue staining: the medium was removed from the wells, and 1/3 trypan blue in DMEM medium was added to the cells, incubated for 3 min, after which trypan blue was removed and DMEM medium was added to the wells. In each of four wells, two microscopy fields were counted for viable (transparent) and dead (blue) cells.

[10] = system: human osteoblasts (OB); experiment: as above; format: cell-based; settings: for effect on proliferation and viability: after 48h and after 6 days of exposure
Description: as §3, §4

[11] = system: human bone marrow-derived mesenchymal stem cells (MSC); experiment: Metabolic activity of bone cells, MTT staining; format: cell-based; settings: 12.5 µM, 6 days exposure, MTT staining (results not shown)
Description: (§5) The cytotoxicity of the compounds was measured on cell cultures of two cell types represented in bone tissue, namely human osteoblasts (OB) and human bone marrow-derived mesenchymal stem cells (MSC). These tests were conducted according to ISO 10993-5 cytotoxicity standard. The cells were seeded in a 96-well plate at a density of 5000 cells/cm^2 in cell culture media (Advanced DMEM, 10% FBS, 1× GlutaMAX, 0.05 mg/mL gentamicin) and allowed to attach overnight. The next day the test compounds (12.5 μM) and controls were added to the cells (negative controls were cell culture medium and cell culture medium with 0.5% DMSO background, positive control was 0.05% phenol to show a cytotoxic effect) and incubated for 2h, 48h and 6 days and at each time-point the numbers of viable and dead cells were determined by trypan blue staining, and the metabolic activity was determined with MTT staining.
(§6) MTT: the medium was removed from the wells and 100 μL of medium, supplemented with 10% serum and 0.5 mg/mL MTT was added to the cells. The cells were incubated overnight at 37 °C and 5% CO2. The next day the medium with MTT was removed and 100 μL acidic isopropanol was added. The cells were then centrifuged at 2300 g and 50 μL of the supernatant was transferred to a new 96-well plate. The absorbance was measured at 570 nm and the background was measured at 660 nm. Four wells per condition were examined.

[12] = system: human osteoblasts (OB); experiment: Metabolic activity of bone cells, MTT staining; format: cell-based; settings: 12.5 µM, 6 days exposure, MTT staining (results not shown)
Description: as §5, §6

[13] = system: S. Typhimurium biofilm; settings: concentration preventing biofilm formation (at 25 °C) by 50%; as previously reported ref 13, 14, 15, 16; read-out: BIC50 S. Typhimurium; cited from earlier work
[14] = system: P. aeruginosa biofilm; settings: concentration preventing biofilm formation (at 25 °C) by 50%; as previously reported ref 13, 14, 15, 16; read-out: BIC50 P. aeruginosa; cited from earlier work
[15] = system: mesenchymal stem cells (MSC); experiment: Calcium assay for osteogenic differentiation potential; format: cell-based, human; settings: 12.5 µM, 5 weeks (Figure 6) or 3 weeks (methods) of exposure
Description: (§7) MSC and OB were cultured in osteogenic medium for 3 and 5 weeks, respectively. The experimental groups included a positive solvent control (osteogenic medium with 0.5% DMSO background), a negative control (medium without osteogenic supplements) and treated samples (osteogenic medium, 0.5% DMSO background and 12.5 µM of test compound). Cell cultures were extracted by 5% trichloroacetic acid (500 μL per sample). O-Cresolphtalein complex was added (Calcium CPC LiquiColor Test®; Stanbio Laboratory, Boerne, TX, USA), and the calcium content was determined spectrophotometrically at 550 nm.
(§8) To determine the DNA content, cells were washed with PBS, and 200 μL of digestion buffer (10 mM Tris, 1 mM EDTA, 0.1% Triton X-100, 0.1 mg/mL proteinase K) was added. Samples were incubated in digestion buffer overnight at 56 °C. The supernatants were drawn off and PicoGreen® dye (Molecular Probes, Eugene, OR, USA) was added to the samples in 1:1 ratio and read in a fluorescent plate reader (excitation 485 nm and emission 528 nm). DNA values were used to normalize the calcium content. Four wells per condition were examined, and two samples from each well were taken for each assay.

[16] = system: osteoblasts (OB); experiment: as above; format: cell-based, human; settings: 12.5 µM, 3 weeks (Figure 6) or 5 weeks (methods) of exposure
Description: as §7, §8

[17] = 12.5 µM, 48h exposure, trypan blue

SMILES: COc1ccc(Cn2cc(Cc3ccc(OC)c(OC)c3)nc2/N=C2/NC(=O)N(C)C2=O)cc1 [2i, isonaamidine E]
- cytotoxicity to a variety of cell lines [1]: cytotoxic

SMILES: COc1ccc(Cc2[nH]/c(=N\C3=NC(=O)N(C)C3=O)n(C)c2Cc2cc(OC)c(O)c(OC)c2)cc1 [2k, naamidine H]
- cytotoxicity to a variety of cell lines [1]: cytotoxic

SMILES: C/N=C1N=C(/N=c2\[nH]c(Cc3ccc(OC)cc3)c(Cc3cc(OC)c(O)c(OC)c3)n2C)C(=O)N\1C [2l, naamidine I]
- cytotoxicity to a variety of cell lines [1]: cytotoxic

SMILES: COc1ccc(Cc2[nH]c(=N)n(C)c2Cc2ccc(O)cc2)cc1 [2m, naamine A]
- ability to inhibit EGFR stimulated DNA synthesis [2]: markedly decreased ability to inhibit

SMILES: Cn1c(C(=O)NCCCc2c[nH]c(N)n2)cc(Br)c1Br [2p]
- toxicity against Caenorhabditis elegans [3]: lack toxicity
- effect on HaCaT keratinocyte cells [4]: differential effect

SMILES: CCCCCCCCCCCCCNC(=O)CCCc1c[nH]c(N)n1 [2q]
- toxicity against Caenorhabditis elegans [3]: lack toxicity
- effect on HaCaT keratinocyte cells [4]: differential effect

SMILES: C/C(=C\c1ccccc1)Cn1cc(CCCCCc2c[nH]c(N)n2)nn1 [2r]
- toxicity against Caenorhabditis elegans [3]: lack toxicity
- effect on HaCaT keratinocyte cells [4]: differential effect

SMILES: CCCCCCCCn1c(-c2ccc(Cl)cc2)cnc1N [compound 7]
- IC50 [5]: 357 µM
- IC50 [6]: 4.5 µM
- IC50 [7]: 3.9 µM
- C. elegans % survival at 25 µM [8]: 86.6%
- effect on C. elegans survival at 100 µM ([8]; 7 days of exposure): none of the compounds significantly affect
- inhibition of C. elegans survival at 200 µM ([8]; 200 µM, 7 days of exposure): more than 50%
- reduction of proliferation as compared to the solvent control [9, 17]: > 70%
- reduction of viability as compared to the solvent control [9, 17]: > 70%
- reduction of proliferation as compared to the solvent control [10, 17]: > 70%
- reduction of viability as compared to the solvent control [10, 17]: > 70%
- reduction of metabolic activity as compared to the untreated controls [11]: > 80%
- reduction of metabolic activity as compared to the untreated controls [12]: > 80%
- IC50 [13]: 5.9 µM
- IC50 [14]: 4 µM

SMILES: CC(C)CNc1ncc(-c2ccc(Cl)cc2)[nH]1 [compound 22]
- IC50 [5]: 297 µM
- IC50 [6]: 172 µM
- IC50 [7]: 336 µM
- C. elegans % survival at 25 µM [8]: 97.6%
- effect on C. elegans survival at 100 µM ([8]; 7 days of exposure): none of the compounds significantly affect
- effect on C. elegans survival at 200 µM ([8]; 200 µM, 7 days of exposure): do not significantly affect survival
- effect on proliferation and viability ([9]; 12.5 µM, trypan blue): do not or only slightly reduce
- survival of cells after 4 weeks of exposure [9]: allow survival
- effect on proliferation and viability ([10]; 12.5 µM, trypan blue): do not or only slightly reduce
- survival of cells after 4 weeks of exposure [10]: allow survival
- effect on metabolic activity [11]: slightly enhance
- effect on metabolic activity [12]: slightly enhance
- calcium deposition compared to the solvent control (osteogenic differentiation potential) [15]: none of the compounds does negatively affect; also recorded: significantly (p < 0.05) induces
- calcium deposition compared to the solvent control (osteogenic differentiation potential) [16]: none of the compounds does negatively affect; also recorded: significantly (p < 0.05) induces
- IC50 [13]: 2 µM
- IC50 [14]: 0.9 µM

SMILES: CCCCNc1ncc(-c2ccc(Br)cc2)[nH]1 [compound 25]
- IC50 [5]: 493 µM
- IC50 [6]: 50.7 µM
- IC50 [7]: 126 µM
- C. elegans % survival at 25 µM [8]: 102.4%
- effect on C. elegans survival at 100 µM ([8]; 7 days of exposure): none of the compounds significantly affect
- effect on C. elegans survival at 200 µM ([8]; 200 µM, 7 days of exposure): do not significantly affect survival
- effect on proliferation and viability ([9]; 12.5 µM, trypan blue): do not or only slightly reduce
- survival of cells after 4 weeks of exposure [9]: allow survival
- effect on proliferation and viability ([10]; 12.5 µM, trypan blue): do not or only slightly reduce
- survival of cells after 4 weeks of exposure [10]: allow survival
- effect on metabolic activity [11]: slightly enhance
- effect on metabolic activity [12]: slightly enhance
- calcium deposition compared to the solvent control (osteogenic differentiation potential) [15]: none of the compounds does negatively affect; also recorded: significantly induces
- calcium deposition compared to the solvent control (osteogenic differentiation potential) [16]: none of the compounds does negatively affect
- IC50 [13]: 7.1 µM
- IC50 [14]: 9.8 µM

SMILES: Brc1ccc(-c2cnc(NCCCn3cc(C4CC4)nn3)[nH]2)cc1 [compound 40]
- IC50 [5]: 33.6 µM
- IC50 [6]: 67.1 µM
- IC50 [7]: 43.9 µM
- C. elegans % survival at 25 µM [8]: 82.6%
- effect on C. elegans survival at 100 µM ([8]; 7 days of exposure): none of the compounds significantly affect
- effect on C. elegans survival at 200 µM ([8]; 200 µM, 7 days of exposure): do not significantly affect survival
- effect on proliferation and viability ([9]; 12.5 µM, trypan blue): do not or only slightly reduce
- survival of cells after 4 weeks of exposure [9]: allow survival
- effect on proliferation and viability ([10]; 12.5 µM, trypan blue): do not or only slightly reduce
- survival of cells after 4 weeks of exposure [10]: allow survival
- effect on metabolic activity [11]: slightly enhance
- effect on metabolic activity [12]: slightly enhance
- calcium deposition compared to the solvent control (osteogenic differentiation potential) [15]: none of the compounds does negatively affect
- calcium deposition compared to the solvent control (osteogenic differentiation potential) [16]: none of the compounds does negatively affect
- IC50 [13]: 2 µM
- IC50 [14]: 72 µM and 71.6 µM
